Reference: publication PMC9019904, “AD Informer Set: Chemical tools to facilitate Alzheimer's disease drug discovery” (Alzheimer's & Dementia : Translational Research & Clinical …, 2022)

Experiments:
[1] = tested on: HMC3 (human microglia) cell line; experiment: pHrodo-myelin phagocytosis/cell viability high content imaging assay: phagocytosis signal; type: cell-based
Protocol: (§1) It is important to note that stressed cells, such as those that are dying, are prone to show an increase in phagocytosis. […] MerTK promotes phagocytosis and thus MerTK inhibition is proposed to lead to inhibition of phagocytosis.[47]
(§2) phagocytosis and cell viability simultaneously. High content imaging is performed with the
(§3) (approximately 22 hours after pHrodo-myelin addition). Three measurements are extracted
(§4) intensity increase (early apoptosis) and decrease (later apoptosis), respectively. These
and 3). […]

[2] = tested on: BV2 (mouse microglia) cell line; experiment: as above; type: cell-based
Protocol: as §1, §2, §3, §4
and 3). […]

[3] = tested on: HMC3 (human microglia) cell line; experiment: pHrodo-myelin phagocytosis/cell viability high content imaging assay: viability (cell count, nuclear area, nuclear intensity); details: 48 hours treatment
Protocol: (§5) All AD Informer Set compounds were tested in two immortalized microglial cell lines, murine (BV2), and human (HMC3), in a high‐content imaging assay in duplicate by the Chu lab. Experimental details and all data can be found as supporting information files.
(§6) The role of microglia in AD has been well documented and was thus chosen as a cell type in which to profile the AD Informer Set.[43], [44], [45] As an example, neuroinflammation, as detected by the presence of activated complement proteins, interleukins, cytokines, and chemokines in microglia and astrocytes, is increased early in AD and is considered pathogenic due to its chronic nature.[33], [34] Cytotoxic effects can be assessed by considering multiple parameters.
(§7) Microglial viability and phagocytosis studies: The pHrodo-myelin phagocytosis/cell viability assay, modified based on a published method, was run with immortalized BV2 (mouse microglia) and HMC3 (human microglia) cell lines in the Chu lab at IUSM. The 384-well plate high content analysis assay with BV2 and HMC3 microglial cell lines is used to quantify both phagocytosis and cell viability simultaneously. High content imaging is performed with the ArrayScan automatic imaging system and imaging analysis done with the software on the system. After allowing cells to adhere overnight, they are treated with compounds for total 48 hours including final 20 hours seeded with pHrodo-myelin (labeled phagocytosis ligand, purified […]
(§8) (approximately 22 hours after pHrodo-myelin addition). Three measurements are extracted from the assay: 1) phagocytosis signal by mean total phagocytosis spot intensity per cell, 2) total cell counts per well as the main measurement of cell viability, and 3) mean average nuclear intensity per cell as profiling of cell health since apoptotic cells showing nuclear intensity increase (early apoptosis) and decrease (later apoptosis), respectively. These measurements allow for evaluation of compound-induced phagocytosis (1) and cytotoxicity (2 and 3). Assays were carried out at a single concentration (10 μM). Idelalisib (10 μM) and cytochalasin-D (4 μM) were used as positive controls in the assay. All data, which was an average of 2 data points, was normalized to untreated wells and reported as % control, which is included in the Supporting Information both as a raw data file and summarized in the compound/gene-annotation file.

[4] = tested on: BV2 (mouse microglia) cell line; experiment: as above; details: 48 hours treatment
Protocol: as §5, §6, §7, §8

[5] = HMC3 cells, 10 uM compound, 48 hours treatment, pHrodo-myelin final 20 hours
[6] = BV2 cells, 10 uM compound, 48 hours treatment, pHrodo-myelin final 20 hours
[7] = HMC3, compound 10 uM, pHrodo-myelin
[8] = BV2, compound 10 uM, pHrodo-myelin

SMILES	4. Phagocytosis (% control) [1, 5]	4. Phagocytosis (% control) [2, 6]	1. Cell count (% control) ([3]; HMC3 cells, 10 uM compound)	2. Nuclear Area (% Control) ([3]; HMC3 cells, 10 uM compound)	3. Nuclear DNA Intensity (% control) ([3]; HMC3 cells, 10 uM compound)	1. Cell count (% control) ([4]; BV2 cells, 10 uM compound)	2. Nuclear Area (% Control) ([4]; BV2 cells, 10 uM compound)	3. Nuclear DNA Intensity (% control) ([4]; BV2 cells, 10 uM compound)	4. Phagocytosis (% control) [1, 7]	4. Phagocytosis (% control) [2, 8]	1. Cell count (% control) ([3]; HMC3, compound 10 uM)	2. Nuclear Area (% Control) ([3]; HMC3, compound 10 uM)	3. Nuclear DNA Intensity (% control) ([3]; HMC3, compound 10 uM)	1. Cell count (% control) ([4]; BV2, compound 10 uM)	2. Nuclear Area (% Control) ([4]; BV2, compound 10 uM)	3. Nuclear DNA Intensity (% control) ([4]; BV2, compound 10 uM)
CCCC[C@@H](C=O)NC(=O)[C@H](CC(C)C)NC(=O)OCc1ccccc1 [UNC10302674A]	69.0 % control	195.1 % control	146.0 % control	103.5 % Control	93.8 % control	102.6 % control	106.4 % Control	106.3 % control	–	–	–	–	–	–	–	–
Cc1cc(C)nc(NS(=O)(=O)c2ccc(NC(=O)NC(=O)c3ccc(Cl)cc3Cl)cc2)n1 [UNC10303168A]	–	–	–	–	–	–	–	–	88.1 % control	118.2 % control	129.3 % control	101.5 % Control	94.7 % control	124.0 % control	99.5 % Control	104.3 % control
CCc1ccc(S(=O)(=O)c2ccccc2)cc1S(=O)(=O)NCCCN(C)C [UNC10302948A]	143.6 % control	187.1 % control	127.5 % control	97.8 % Control	101.2 % control	115.1 % control	106.0 % Control	108.0 % control	–	–	–	–	–	–	–	–
CNC(=O)c1cccc(-c2ccc3c(N4CCOC[C@@H]4C)nc(N4CCOC[C@@H]4C)nc3n2)c1 [UNC10302837A]	–	–	–	–	–	–	–	–	149.5 % control	328.3 % control	99.5 % control	83.5 % Control	103.3 % control	47.4 % control	94.2 % Control	117.6 % control
COc1ccc(CC[C@@H](OC(=O)[C@@H]2CCCCN2C(=O)[C@H](c2cc(OC)c(OC)c(OC)c2)C2CCCCC2)c2cccc(OCC(=O)O)c2)cc1OC [UNC10302701A]	–	–	–	–	–	–	–	–	71.9 % control	156.6 % control	116.9 % control	101.8 % Control	97.5 % control	117.8 % control	104.1 % Control	103.5 % control
C[C@]12C=CC(=O)C=C1CC[C@@H]1[C@@H]2[C@@H](O)C[C@@]2(C)[C@H]1CC[C@]2(O)C(=O)CO [UNC10240227A]	79.4 % control	126.6 % control	161.9 % control	102.8 % Control	82.5 % control	107.8 % control	102.9 % Control	105.7 % control	–	–	–	–	–	–	–	–
COc1ccc(/C=C/C(=O)c2ccc(OC)cc2OC)cc1 [UNC10121790A]	97.7 % control	199.6 % control	66.8 % control	97.3 % Control	138.7 % control	72.4 % control	107.4 % Control	104.1 % control	–	–	–	–	–	–	–	–
CC(=O)N1CCN(c2ccc(OC[C@H]3CO[C@](Cn4ccnc4)(c4ccc(Cl)cc4Cl)O3)cc2)CC1 [UNC10100724A]	144.4 % control	280.0 % control	125.5 % control	96.3 % Control	100.1 % control	129.7 % control	103.8 % Control	104.7 % control	–	–	–	–	–	–	–	–
CC(Nc1nc(N2CCCC2)nc2ccccc12)c1ccccc1 (centres unmarked) [UNC10302900A]	34.5 % control	110.9 % control	56.4 % control	90.6 % Control	151.6 % control	9.8 % control	106.6 % Control	119.7 % control	–	–	–	–	–	–	–	–
CS[C@@]1(C(=O)Nc2ccc3[nH]nc(-c4ccc(OC(C)C)nc4)c3c2)CCN(CC(=O)N2CC=C(c3ccc(-c4ncn(C)n4)cc3)CC2)C1 [UNC10302902A]	45.1 % control	339.1 % control	113.2 % control	96.5 % Control	97.1 % control	54.0 % control	110.5 % Control	112.2 % control	–	–	–	–	–	–	–	–
Nc1nc(Nc2ccc3c(c2)CC[C@@H](N2CCCC2)CC3)nn1-c1cc2c(nn1)-c1ccccc1CCC2 [UNC10220544A]	0.8 % control	0.0 % control	56.4 % control	55.3 % Control	170.6 % control	2.8 % control	94.5 % Control	55.2 % control	–	–	–	–	–	–	–	–
CN1c2ccc([N+](=O)[O-])cc2N=C(c2ccc(C(=O)O)cc2)c2cc3c(cc21)C(C)(C)CCC3(C)C [UNC10303107A]	76.2 % control	117.4 % control	75.4 % control	99.6 % Control	105.3 % control	16.8 % control	151.2 % Control	64.7 % control	–	–	–	–	–	–	–	–
CCn1cc(C(=O)O)c(=O)c2c(N)c(F)c(NC3CCCCC3)cc21 [UNC10302843A]	–	–	–	–	–	–	–	–	67.4 % control	121.2 % control	0.0 % control	0.0 % Control	0.0 % control	99.6 % control	97.0 % Control	118.4 % control
Cc1cnc(Nc2ccc(F)cc2Cl)nc1-c1c[nH]c(C(=O)N[C@H](CO)c2cccc(Cl)c2)c1 [UNC10302866A]	72.8 % control	108.3 % control	106.8 % control	98.0 % Control	96.6 % control	83.7 % control	101.5 % Control	113.9 % control	–	–	–	–	–	–	–	–
CCCCCCCCCCCCCCCCOCC(COCC(F)(F)F)OP(=O)([O-])OC.[Li+] (centres unmarked) [UNC8441A]	–	–	–	–	–	–	–	–	43.1 % control	99.7 % control	76.1 % control	97.9 % Control	109.2 % control	80.6 % control	107.7 % Control	98.9 % control
O=C(NNc1nc2cc(F)ccc2n2cccc12)c1cnccn1 [UNC10302850A]	103.0 % control	362.4 % control	86.1 % control	94.6 % Control	106.5 % control	29.4 % control	129.5 % Control	94.0 % control	–	–	–	–	–	–	–	–
